# Measurements from patent US20230263822A1, “MODULATION OF FACTOR 11 EXPRESSION” (Ionis Pharmaceuticals, Inc., priority 2008, published 2023).
# Strand notation (5' to 3'): a small letter for the sugar, then the base; units joined by * are phosphorothioate-linked, units joined directly phosphodiester-linked; [ ] holds rarer units or linkages, { } end groups; capitals alone tell only the bases. e = 2'-O-(2-methoxyethyl) (MOE); [5mC] = 5-methylcytosine; d = 2'-deoxy (DNA)
# Legend:
# Factor 11 protein = Factor 11 protein in monkey plasma by sandwich ELISA (Example 46); assay type: in vivo, cynomolgus monkeys; conditions: cynomolgus monkeys, 25 mg/kg
# Experimental: (§1) Groups, each consisting of two male and two female monkeys, were injected subcutaneously with 25 mg/kg of ISIS 416850, ISIS 449709, ISIS 445522, ISIS 449710, ISIS 449707, ISIS 449711, ISIS 449708, 416858, and ISIS 445531. Antisense oligonucleotide was administered to the monkeys at 25 mg/kg three times per week for week 1 and 25 mg/kg twice per week for weeks 2 to 8. A control group, consisting of two male and two female monkeys was injected subcutaneously with PBS according to the same dosing regimen. Body weights were taken 14 days and 7 days before the start of treatment and were then measured weekly throughout the treatment period. Blood samples were collected 14 days and 5 days before the start of treatment and subsequently several times during the dosing regimen for PT and aPTT measurements, and measurement of various hematologic factors. On day 55, the monkeys were euthanized by exsanguination while under deep anesthesia, and organs harvested for further analysis.
# Plasma samples from all monkey groups taken on different days were analyzed by a sandwich-style ELISA assay (Affinity Biologicals Inc.) using an affinity-purified polyclonal anti-Factor 11 antibody as the capture antibody and a peroxidase-conjugated polyclonal anti-Factor 11 antibody as the detecting antibody. Monkey plasma was diluted 1:50 for the assay. Peroxidase activity was expressed by incubation with the substrate o-phenylenediamine. The color produced was quantified using a microplate reader at 490 nm and was considered to be proportional to the concentration of Factor 11 in the samples.
# The results are presented in Table 147, expressed as percentage reduction relative to that of the PBS control.
# [1] = Hematology assays in cynomolgus monkeys (Example 46); assay type: in vivo
# Experimental: as §1
# [2] = Tolerability in CD1 mice: body weight and organ weight (Example 43); assay type: in vivo; conditions: 50 mg/kg s.c. twice per week for 6 weeks, end of study
# [3] = Tolerability in Sprague-Dawley rats: kidney function (Example 44); assay type: in vivo; conditions: 50 mg/kg s.c. twice per week for 6 weeks
substance,measurement,setting,value
"ISIS 416858: MOE gapmer, nucleobases 1275 to 1318 of SEQ ID NO: 1 (Table 8) (antisense ACGGCATTGGTGCACAGTTT; MOE gapmer, wing and gap sizes not given here)",Factor 11 protein levels in plasma,Factor 11 protein,time-dependent decrease in protein levels
same,HCT,[1]; Day 17,43%
same,MCH,[1]; Day 17,23.1 pg
same,MCHC,[1]; Day 17,29.9 g/dL
same,MCV,[1]; Day 17,78 fL
same,RBC count,[1]; Day 17,5.6e+06 µL⁻¹
same,WBC count,[1]; Day 17,10000 µL⁻¹
same,hemoglobin content,[1]; Day 17,13.0 g/dL
same,monocytes,[1]; Day 17,4.0%
same,neutrophils,[1]; Day 17,54%
same,platelet count,[1]; Day 17,358 ×100/μL
same,HCT,[1]; Day 31,43%
same,MCH,[1]; Day 31,23.0 pg
same,MCHC,[1]; Day 31,31.0 g/dL
same,MCV,[1]; Day 31,76 fL
same,RBC count,[1]; Day 31,5.6e+06 µL⁻¹
same,WBC count,[1]; Day 31,9000 µL⁻¹
same,hemoglobin content,[1]; Day 31,12.8 g/dL
same,monocytes,[1]; Day 31,4.7%
same,neutrophils,[1]; Day 31,54%
same,platelet count,[1]; Day 31,289 ×100/μL
same,HCT,[1]; Day 45,41%
same,MCH,[1]; Day 45,22.2 pg
same,MCHC,[1]; Day 45,30.3 g/dL
same,MCV,[1]; Day 45,75 fL
same,RBC count,[1]; Day 45,5.5e+06 µL⁻¹
same,WBC count,[1]; Day 45,8000 µL⁻¹
same,hemoglobin content,[1]; Day 45,12.3 g/dL
same,monocytes,[1]; Day 45,4.6%
same,neutrophils,[1]; Day 45,61%
same,platelet count,[1]; Day 45,287 ×100/μL
same,HCT,[1]; Day 55,39%
same,MCH,[1]; Day 55,22.8 pg
same,MCHC,[1]; Day 55,30.4 g/dL
same,MCV,[1]; Day 55,75 fL
same,RBC count,[1]; Day 55,5.3e+06 µL⁻¹
same,WBC count,[1]; Day 55,9000 µL⁻¹
same,hemoglobin content,[1]; Day 55,12.0 g/dL
same,monocytes,[1]; Day 55,4.6%
same,neutrophils,[1]; Day 55,73%
same,platelet count,[1]; Day 55,257 ×100/μL
same,HCT,[1]; Day-5,44%
same,MCH,[1]; Day-5,23.5 pg
same,MCHC,[1]; Day-5,29.8 g/dL
same,MCV,[1]; Day-5,79 fL
same,RBC count,[1]; Day-5,5.5e+06 µL⁻¹
same,WBC count,[1]; Day-5,11000 µL⁻¹
same,hemoglobin content,[1]; Day-5,13.0 g/dL
same,monocytes,[1]; Day-5,2.7%
same,neutrophils,[1]; Day-5,84%
same,platelet count,[1]; Day-5,433 ×100/μL
same,HCT,[1]; Day-14,41%
same,MCH,[1]; Day-14,23.2 pg
same,MCHC,[1]; Day-14,31.1 g/dL
same,MCV,[1]; Day-14,75 fL
same,RBC count,[1]; Day-14,5.5e+06 µL⁻¹
same,WBC count,[1]; Day-14,10000 µL⁻¹
same,hemoglobin content,[1]; Day-14,12.8 g/dL
same,monocytes,[1]; Day-14,2.0%
same,neutrophils,[1]; Day-14,65%
same,platelet count,[1]; Day-14,369 ×100/μL
ISIS 445522: 5-8-5 or 6-8-6 MOE microwalk gapmer (Table 44) (antisense eG*e[5mC]*eA*e[5mC]*eA*dG*dT*dT*dT*d[5mC]*dT*dG*dG*e[5mC]*eA*eG*eG*e[5mC]),Factor 11 protein levels in plasma,Factor 11 protein,time-dependent decrease in protein levels
same,HCT,[1]; Day 17,41%
same,MCH,[1]; Day 17,22.8 pg
same,MCHC,[1]; Day 17,30.9 g/dL
same,MCV,[1]; Day 17,74 fL
same,RBC count,[1]; Day 17,5.6e+06 µL⁻¹
same,WBC count,[1]; Day 17,11000 µL⁻¹
same,hemoglobin content,[1]; Day 17,12.7 g/dL
same,monocytes,[1]; Day 17,3.6%
same,neutrophils,[1]; Day 17,81%
same,platelet count,[1]; Day 17,521 ×100/μL
same,HCT,[1]; Day 31,43%
same,MCH,[1]; Day 31,22.4 pg
same,MCHC,[1]; Day 31,30.0 g/dL
same,MCV,[1]; Day 31,75 fL
same,RBC count,[1]; Day 31,5.8e+06 µL⁻¹
same,WBC count,[1]; Day 31,13000 µL⁻¹
same,hemoglobin content,[1]; Day 31,12.9 g/dL
same,monocytes,[1]; Day 31,3.9%
same,neutrophils,[1]; Day 31,66%
same,platelet count,[1]; Day 31,425 ×100/μL
same,HCT,[1]; Day 45,41%
same,MCH,[1]; Day 45,22.4 pg
same,MCHC,[1]; Day 45,30.7 g/dL
same,MCV,[1]; Day 45,73 fL
same,RBC count,[1]; Day 45,5.7e+06 µL⁻¹
same,WBC count,[1]; Day 45,10000 µL⁻¹
same,hemoglobin content,[1]; Day 45,12.6 g/dL
same,monocytes,[1]; Day 45,4.4%
same,neutrophils,[1]; Day 45,69%
same,platelet count,[1]; Day 45,403 ×100/μL
same,HCT,[1]; Day 55,39%
same,MCH,[1]; Day 55,22.2 pg
same,MCHC,[1]; Day 55,31.0 g/dL
same,MCV,[1]; Day 55,72 fL
same,RBC count,[1]; Day 55,5.4e+06 µL⁻¹
same,WBC count,[1]; Day 55,11000 µL⁻¹
same,hemoglobin content,[1]; Day 55,12.0 g/dL
same,monocytes,[1]; Day 55,3.0%
same,neutrophils,[1]; Day 55,125%
same,platelet count,[1]; Day 55,333 ×100/μL
same,HCT,[1]; Day-5,42%
same,MCH,[1]; Day-5,22.5 pg
same,MCHC,[1]; Day-5,30.4 g/dL
same,MCV,[1]; Day-5,74 fL
same,RBC count,[1]; Day-5,5.6e+06 µL⁻¹
same,WBC count,[1]; Day-5,9000 µL⁻¹
same,hemoglobin content,[1]; Day-5,12.7 g/dL
same,monocytes,[1]; Day-5,2.3%
same,neutrophils,[1]; Day-5,84%
same,platelet count,[1]; Day-5,512 ×100/μL
same,HCT,[1]; Day-14,42%
same,MCH,[1]; Day-14,22.6 pg
same,MCHC,[1]; Day-14,31.4 g/dL
same,MCV,[1]; Day-14,72 fL
same,RBC count,[1]; Day-14,5.9e+06 µL⁻¹
same,WBC count,[1]; Day-14,10000 µL⁻¹
same,hemoglobin content,[1]; Day-14,13.3 g/dL
same,monocytes,[1]; Day-14,2.1%
same,neutrophils,[1]; Day-14,61%
same,platelet count,[1]; Day-14,433 ×100/μL
"ISIS 449707: 3-8-3, 4-8-4, 2-10-2, 3-10-3 or 4-10-4 MOE microwalk gapmer (Table 46) (antisense e[5mC]*eA*e[5mC]*eA*dG*dT*dT*dT*d[5mC]*dT*dG*dG*e[5mC]*eA*eG*eG)",Change in Kidney weight,[2],−5%
same,Change in Liver weight,[2],+11%
same,Change in Spleen weight,[2],+63%
same,HCT,[1]; Day 17,42%
same,MCH,[1]; Day 17,22.1 pg
same,MCHC,[1]; Day 17,30.0 g/dL
same,MCV,[1]; Day 17,74 fL
same,RBC count,[1]; Day 17,5.7e+06 µL⁻¹
same,WBC count,[1]; Day 17,12000 µL⁻¹
same,hemoglobin content,[1]; Day 17,12.7 g/dL
same,monocytes,[1]; Day 17,3.2%
same,neutrophils,[1]; Day 17,80%
same,platelet count,[1]; Day 17,408 ×100/μL
same,HCT,[1]; Day 31,43%
same,MCH,[1]; Day 31,22.1 pg
same,MCHC,[1]; Day 31,29.8 g/dL
same,MCV,[1]; Day 31,74 fL
same,RBC count,[1]; Day 31,5.7e+06 µL⁻¹
same,WBC count,[1]; Day 31,11000 µL⁻¹
same,hemoglobin content,[1]; Day 31,12.7 g/dL
same,monocytes,[1]; Day 31,4.2%
same,neutrophils,[1]; Day 31,89%
same,platelet count,[1]; Day 31,408 ×100/μL
same,HCT,[1]; Day 45,43%
same,MCH,[1]; Day 45,22.6 pg
same,MCHC,[1]; Day 45,29.8 g/dL
same,MCV,[1]; Day 45,73 fL
same,RBC count,[1]; Day 45,5.9e+06 µL⁻¹
same,WBC count,[1]; Day 45,12000 µL⁻¹
same,hemoglobin content,[1]; Day 45,12.9 g/dL
same,monocytes,[1]; Day 45,4.0%
same,neutrophils,[1]; Day 45,89%
same,platelet count,[1]; Day 45,424 ×100/μL
same,HCT,[1]; Day 55,42%
same,MCH,[1]; Day 55,21.9 pg
same,MCHC,[1]; Day 55,30.0 g/dL
same,MCV,[1]; Day 55,73 fL
same,RBC count,[1]; Day 55,5.8e+06 µL⁻¹
same,WBC count,[1]; Day 55,8000 µL⁻¹
same,hemoglobin content,[1]; Day 55,12.6 g/dL
same,monocytes,[1]; Day 55,4.8%
same,neutrophils,[1]; Day 55,98%
same,platelet count,[1]; Day 55,399 ×100/μL
same,HCT,[1]; Day-5,43%
same,MCH,[1]; Day-5,22.2 pg
same,MCHC,[1]; Day-5,29.8 g/dL
same,MCV,[1]; Day-5,75 fL
same,RBC count,[1]; Day-5,5.8e+06 µL⁻¹
same,WBC count,[1]; Day-5,11000 µL⁻¹
same,hemoglobin content,[1]; Day-5,12.8 g/dL
same,monocytes,[1]; Day-5,2.3%
same,neutrophils,[1]; Day-5,106%
same,platelet count,[1]; Day-5,464 ×100/μL
same,HCT,[1]; Day-14,40%
same,MCH,[1]; Day-14,22.2 pg
same,MCHC,[1]; Day-14,31.4 g/dL
same,MCV,[1]; Day-14,71 fL
same,RBC count,[1]; Day-14,5.7e+06 µL⁻¹
same,WBC count,[1]; Day-14,13000 µL⁻¹
same,hemoglobin content,[1]; Day-14,12.7 g/dL
same,monocytes,[1]; Day-14,1.3%
same,neutrophils,[1]; Day-14,85%
same,platelet count,[1]; Day-14,383 ×100/μL
same,BUN,[3]; plasma,24 mg/dL
same,Creatinine,[3]; plasma,0.4 mg/dL
same,Urine protein/creatinine ratio,[3]; urine,3.2
